# Measured values reported in ChEMBL document CHEMBL3297643, “Chemical constituents from Eucalyptus citriodora Hook leaves and their glucose transporter 4 translocation activities” (Bioorg Med Chem Lett, 2014).
# Activity calls are given as the source filed them. The rule behind the calls is not given here.
# Target: T1, Solute carrier family 2, facilitated glucose transporter member 4 (Rattus norvegicus) (UniProt P19357)
# T1 sequence (whole entry): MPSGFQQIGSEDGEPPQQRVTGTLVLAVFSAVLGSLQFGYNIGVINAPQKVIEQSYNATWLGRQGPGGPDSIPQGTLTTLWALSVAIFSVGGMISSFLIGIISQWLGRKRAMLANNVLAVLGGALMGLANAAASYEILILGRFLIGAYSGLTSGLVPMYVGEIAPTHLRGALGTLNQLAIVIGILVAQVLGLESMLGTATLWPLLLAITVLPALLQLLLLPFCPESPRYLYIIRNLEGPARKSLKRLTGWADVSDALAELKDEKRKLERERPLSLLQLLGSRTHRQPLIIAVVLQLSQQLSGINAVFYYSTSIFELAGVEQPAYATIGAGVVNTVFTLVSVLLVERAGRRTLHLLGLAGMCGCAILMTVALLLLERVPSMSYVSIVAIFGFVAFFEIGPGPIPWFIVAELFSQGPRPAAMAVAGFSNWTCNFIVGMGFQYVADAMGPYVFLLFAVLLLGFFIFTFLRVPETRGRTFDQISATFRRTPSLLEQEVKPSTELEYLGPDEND
# Test: Enhancement of GLUT4 translocation in rat L6 cells expressing pIRAP-mOrange cDNAs at 10 uM after 10 mins by fluorescence assay relative to control
# Assay type: cell-based
SMILES,fold change (FC),Activity
C[C@H]1[C@H](C)CC[C@]2(C(=O)O)CC[C@]3(C)C(=CC[C@@H]4[C@@]5(C)C[C@@H](O)[C@H](O)[C@@](C)(CO)[C@@H]5[C@H](O)C[C@]43C)[C@H]12,0.7,
C=C(C)[C@@H]1CC[C@]2(C(=O)O)CC[C@]3(C)[C@H](CC[C@@H]4[C@@]5(C)CC[C@H](O)C(C)(C)[C@@H]5CC[C@]43C)[C@@H]12,2.38,
CC1(C)CC[C@]2(C(=O)O)CC[C@]3(C)C(=CC[C@@H]4[C@@]5(C)CC[C@H](O)C(C)(C)[C@@H]5CC[C@]43C)[C@@H]2C1,0.7,
O=c1c(OC2O[C@H](CO)[C@@H](O)[C@H](O)[C@H]2O)c(-c2cc(O)c(O)c(O)c2)oc2cc(O)cc(O)c12 (some centres not stated),,inactive
C[C@H]1[C@H](C)CC[C@]2(C(=O)O)CC[C@]3(C)C(=CC[C@@H]4[C@@]5(C)CC[C@H](O)C(C)(C)[C@@H]5CC[C@]43C)[C@H]12,0.7,
O=c1c(O[C@@H]2O[C@H](CO)[C@@H](O)[C@H](O)[C@H]2O)c(-c2ccc(O)c(O)c2)oc2cc(O)cc(O)c12,,inactive
C[C@H]1[C@H](C)CC[C@]2(C(=O)O)CC[C@]3(C)C(=CC[C@@H]4[C@@]5(C)C[C@@H](O)[C@H](O)[C@@](C)(CO)[C@@H]5CC[C@]43C)[C@H]12,0.47,
O=C1c2c(O)cc(O)cc2O[C@@H](c2ccc(O)cc2)[C@@H]1O,,inactive
C[C@@H]1CC[C@]2(C(=O)O)CC[C@]3(C)C(=CC[C@@H]4[C@@]5(C)C[C@@H](O)[C@@H](O)C(C)(C)[C@@H]5CC[C@]43C)[C@@H]2[C@]1(C)O,0.7,
O=C(O)c1cc(O)c(O)c(O)c1,,inactive
C[C@H]1[C@H](C)CC[C@]2(C(=O)O)CC[C@]3(C)C(=CC[C@@H]4[C@@]5(C)C[C@@H](O)[C@H](O)C(C)(C)[C@@H]5CC[C@]43C)[C@H]12,1.78,
CC(C)CC1C2=C(Oc3cc(O)c(C(=O)CCc4ccccc4)c(O)c31)C(C)(C)C(=O)C(C)(C)C2=O (racemic),0.49,
